Laboratory results reported in US11234957B2, “Process for preparing water soluble forskolin” (SciPharm S.à.r.l., priority 2017, dated 2022).
Read-outs that look alike come from different tables or passages of the source.

How the values were obtained:
[1] = Maximum solubility of forskolin in aqueous hydroxypropyl-cyclodextrin solutions (Laurenza et al., 1987); format: physicochemical
From the text: Aqueous solutions of forskolin had also been produced by dissolving forskolin in solutions of hydroxypropyl-γ-cyclodextrin.

[2] = cited from earlier work
adenylyl cyclase = test: Cell culture test - cAMP assay; format: cell-based; details: versus forskolin dissolved in DMSO; FIG. 4 and summary
Experimental: The method was performed at the Institute of Pharmacology, Medical University […] of Vienna, Prof. Michael Freissmuth. The forskolin-CD complex was compared with an established method, where forskolin is dissolved and diluted in DMSO. The method has been described previously (Hussain F, et al., BMC Pharmacology 11 (2013), Suppl 2, A6) and is a test platform for the assessment of the chemical induction of stem cells.
Also, the lack of DMSO, which is considered to be a PDE inhibitor (see above), had no […] effect on the results based on preliminary theoretical and practical aspects. The following batches were tested in aliquot molar concentrations as an activator of adenylyl cyclase: […]

C=C[C@@]1(C)CC(=O)[C@]2(O)[C@@]3(C)[C@@H](O)CCC(C)(C)[C@@H]3[C@H](O)[C@H](OC(C)=O)[C@@]2(C)O1 [forskolin, 7-beta-acetoxy-8,13-epoxy-1-alpha, 6-beta, 9-alpha-trihydroxylabd-14-en-11-one]
increase of solubility ([1]; in 40% (w/v) hydroxypropyl-ß-cyclodextrin): approx. 16 fold
increase of solubility ([1]; in 40% (w/v) hydroxypropyl-γ-cyclodextrin): approx. 65 fold
Maximum solubility of forskolin ([2]; in 40% (w/v) aqueous solution of hydroxypropyl-ß-cyclodextrin): 2.5 mM
Maximum solubility of forskolin ([2]; in 40% (w/v) aqueous solution of hydroxypropyl-γ-cyclodextrin): 9.8 mM

COC(=O)[C@@H]1C[C@H](OC(C)=O)C(=O)[C@H]2[C@@]1(C)CC[C@H]1C(=O)O[C@H](c3ccoc3)C[C@]21C [salvinorin A]
activation of adenylyl cyclase (adenylyl cyclase): Inactive

COC(=O)[C@@H]1C[C@H](O)C(=O)[C@H]2[C@@]1(C)CC[C@H]1C(=O)O[C@H](c3ccoc3)C[C@]21C [salvinorin B]
activation of adenylyl cyclase (adenylyl cyclase): Inactive
